The record followed here is patent US20210015725A1, “SKINCARE PRODUCT AND METHOD OF PREPARATION THEREOF” (FE:I BEAUTY TECH, INC., priority 2012, published 2021).

The conditions of test [1]: calcium carbonate 0-10%, various time periods of incubation. The method, then: Precipitation of iron by calcium carbonate: Iron was added to extracellular matrix, followed by the addition of different concentrations of calcium carbonate (0-10%) (FIG. 5). After various time periods of incubation, a small part of the mixture was filtered using a membrane with a molecular weight cutoff of 5,000 Dalton as previously described in FIG. 4. Levels of iron in the filtrates were determined by Ferrozine.

Test [2] concerns the target Ferritin (Homo sapiens, UniProt P02792+P02794). Briefly: Reduction of iron from ferritin by vitamin C. Type of test: biochemical. The method, then:
Reduction of iron from ferritin by vitamin C: Ferritin at a concentration of 1 mg/ml was incubated with various concentrations of vitamin C (0-500 μM). […] Levels of iron in the filtrates were measured by Ferrozine (Sigma, St. Louis, Mo.), which forms a stable magenta-colored complex (Fe^2+-ferrozine) with a maximum absorption at 560 nm. In brief, 30 μl sample was added to 135 μl buffer. After 10 min incubation at 37° C., the absorbance was measured at 560 nm using a UV—visible microplate reader (SpectraMax Plus, Molecular Devices, Sunnyvale, Calif.). Then, 5 μl iron chromogenic agent (ferrozine) was added and after 15 min incubation, the absorbance was measured again at 560 nm. The difference in absorbance was used to calculate iron concentration after comparing to the iron standard curve. To determine whether iron is completely released from ferritin, atomic absorption (AA) was used to measure total iron in ferritin.

Chain of Ferritin (P02794 whole entry, species assumed): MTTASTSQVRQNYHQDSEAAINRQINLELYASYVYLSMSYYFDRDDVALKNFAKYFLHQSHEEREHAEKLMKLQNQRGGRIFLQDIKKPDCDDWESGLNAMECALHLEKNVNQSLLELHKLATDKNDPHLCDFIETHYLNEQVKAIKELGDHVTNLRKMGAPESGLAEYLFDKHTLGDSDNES
Chain of Ferritin (P02792 whole entry, species assumed): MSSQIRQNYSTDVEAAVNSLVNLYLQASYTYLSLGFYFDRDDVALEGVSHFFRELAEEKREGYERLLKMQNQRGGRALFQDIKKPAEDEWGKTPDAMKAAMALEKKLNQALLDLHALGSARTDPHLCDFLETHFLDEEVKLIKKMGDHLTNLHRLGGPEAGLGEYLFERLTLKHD

As for `O=C([O-])[O-].[Ca+2]` [calcium carbonate], the “precipitation of iron (iron in filtrates by Ferrozine)” value in test [1] is “can effectively precipitate iron”.

For `O=C1O[C@H]([C@@H](O)CO)C(O)=C1O` [vitamin C], the “completeness of iron release from ferritin (atomic absorption, total iron)” value in test [2] (after vitamin C reduction) is given as “all iron in ferritin is released”. The “release of iron from ferritin (iron in filtrates measured by Ferrozine)” value in test [2] (ferritin 1 mg/ml, vitamin C 0-500 μM, one hour incubation) is given as “effective in releasing iron from ferritin”.
